# Measured values published in patent publication US9981975B2, “Pyrrolotriazine compounds as tam inhibitors” (Incyte Corporation, priority 2016, dated 2018).
# Target: Tyro3 (Homo sapiens (Human), UniProt Q06418)
# Experiment: TAM Enzymatic Assay (HTRF), Tyro3
# Assay type: biochemical
# Details: Tyro3, 60 min, room temperature
# Description: The kinase assay buffer contained 50 mM HEPES, pH7.5, 10 mM MgCl2, 1 mM EGTA, 0.01% NP-40 and 2 mM DTT. 0.1 ul test compounds dissolved in DMSO were transferred from compound plates to white 384-well assay plates (Greiner […] plates). […] 4 ul enzyme solution (or assay buffer for the enzyme blank) was added to the appropriate wells in each plate, and then 4 ul/well substrate solution was added to initiate the reaction. The plate was protected from light and incubated at room temperature for 60 min. […] The plate was incubated for 1 h at room temperature, and HTRF (homogenous time resolved fluorescence) signal was measured on a PHERAstar FS plate reader (BMG labtech). Percentage of inhibition was calculated for each concentration and IC50 value was generated from curve fitting with GraphPad Prism software.
# Sequence of Tyro3 (Q06418 41-890): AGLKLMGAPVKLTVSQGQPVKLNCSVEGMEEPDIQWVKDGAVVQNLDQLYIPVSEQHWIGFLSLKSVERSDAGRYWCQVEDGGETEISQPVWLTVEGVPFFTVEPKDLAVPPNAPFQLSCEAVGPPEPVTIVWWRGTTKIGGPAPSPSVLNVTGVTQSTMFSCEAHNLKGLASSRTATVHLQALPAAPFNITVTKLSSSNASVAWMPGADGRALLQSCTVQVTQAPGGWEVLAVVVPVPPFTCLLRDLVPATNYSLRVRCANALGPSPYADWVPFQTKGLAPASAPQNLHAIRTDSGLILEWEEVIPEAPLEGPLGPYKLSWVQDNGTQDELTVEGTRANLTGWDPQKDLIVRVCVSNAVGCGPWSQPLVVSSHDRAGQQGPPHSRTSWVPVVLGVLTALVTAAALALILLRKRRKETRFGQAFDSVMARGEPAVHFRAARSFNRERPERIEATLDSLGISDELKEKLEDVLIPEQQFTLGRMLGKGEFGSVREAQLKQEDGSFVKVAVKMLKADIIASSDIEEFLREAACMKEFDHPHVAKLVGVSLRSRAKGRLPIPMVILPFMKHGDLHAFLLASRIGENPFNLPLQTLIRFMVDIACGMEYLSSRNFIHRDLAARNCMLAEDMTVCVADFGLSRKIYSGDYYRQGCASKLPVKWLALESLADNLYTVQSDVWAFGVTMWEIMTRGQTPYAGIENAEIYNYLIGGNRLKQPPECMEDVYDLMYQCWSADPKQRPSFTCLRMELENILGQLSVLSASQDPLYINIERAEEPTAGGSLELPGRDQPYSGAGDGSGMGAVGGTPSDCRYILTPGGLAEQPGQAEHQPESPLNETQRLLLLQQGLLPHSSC
row,SMILES,IC50 [nM]
1,"CC(C)n1cc(C(=O)Nc2ccc(-c3cc(C4CCN(C5CCN(C)C5=O)CC4)n4ncnc(N)c34)cc2)c(=O)n(-c2ccccc2)c1=O (racemic) [Example 82, N-(4-(4-Amino-7-(1-(1-methyl-2-oxopyrrolidin-3-yl)piperidin-4-yl)pyrrolo[1,2-f][1,2,4]triazin-5-yl)phenyl)-1-isopropyl-2,4-dioxo-3-phenyl-1,2,3,4-tetrahydropyrimidine-5-carboxamide]",10 to 100
2,"CCc1cc(-c2ccc(NC(=O)c3cc4c(n(-c5ccc(F)cc5)c3=O)CCCC4=O)cc2)c2c(N)ncnn12 [Example 1, N-[4-(4-Amino-7-ethylpyrrolo[2,1-f][1,2,4]triazin-5-yl)phenyl]-1-(4-fluorophenyl)-2,5-dioxo-1,2,5,6,7,8-hexahydroquinoline-3-carboxamide]",> 100
3,"CCc1cc(-c2ccc(NC(=O)c3cccn([C@@H](CO)c4ccccc4)c3=O)cc2)c2c(N)ncnn12 [Example 2, N-[4-(4-Amino-7-ethylpyrrolo[2,1-f][1,2,4]triazin-5-yl)phenyl]-1-[(1R)-2-hydroxy-1-phenylethyl]-2-oxo-1,2-dihydropyridine-3-carboxamide]",> 100
4,"Cc1cc(-c2ccc(NC(=O)c3cccn(-c4ccccc4)c3=O)cc2)c2c(N)ncnn12 [Example 8, N-[4-(4-Amino-7-methylpyrrolo[2,1-f][1,2,4]triazin-5-yl)phenyl]-2-oxo-1-phenyl-1,2-dihydropyridine-3-carboxamide]",> 100
5,"Cc1cc(-c2ccc(NC(=O)c3cccn(-c4ccccc4)c3=O)cc2F)c2c(N)ncnn12 [Example 10, N-[4-(4-Amino-7-methylpyrrolo[2,1-f][1,2,4]triazin-5-yl)-3-fluorophenyl]-2-oxo-1-phenyl-1,2-dihydropyridine-3-carboxamide]",> 100
6,"Cc1cc(-c2ccc(NC(=O)c3cccn(-c4ccc(F)cc4)c3=O)cc2F)c2c(N)ncnn12 [Example 11, N-[4-(4-Amino-7-methylpyrrolo[2,1-f][1,2,4]triazin-5-yl)-3-fluorophenyl]-1-(4-fluorophenyl)-2-oxo-1,2-dihydropyridine-3-carboxamide]",> 100
7,"Nc1ncnn2c(C3CCOCC3)cc(-c3ccc(NC(=O)c4cccn(-c5ccccc5)c4=O)cc3)c12 [Example 13, N-{4-[4-Amino-7-(tetrahydro-2H-pyran-4-yl)pyrrolo[2,1-f][1,2,4]triazin-5-yl]phenyl}-2-oxo-1-phenyl-1,2-dihydropyridine-3-carboxamide]",> 100
8,"CN1CCC(c2cc(-c3ccc(NC(=O)c4cccn(-c5ccccc5)c4=O)cc3)c3c(N)ncnn23)CC1 [Example 20, N-{4-[4-Amino-7-(1-methylpiperidin-4-yl)pyrrolo[2,1-f][1,2,4]triazin-5-yl]phenyl}-2-oxo-1-phenyl-1,2-dihydropyridine-3-carboxamide]",> 100
9,"COC(=O)N1CCC(c2cc(-c3ccc(NC(=O)c4cccn(-c5ccccc5)c4=O)cc3)c3c(N)ncnn23)CC1 [Example 36, Methyl 4-[4-amino-5-(4-{[(2-oxo-1-phenyl-1,2-dihydropyridin-3-yl)carbonyl]amino}phenyl)pyrrolo[2,1-f][1,2,4]triazin-7-yl]piperidine-1-carboxylate]",> 100
10,"CS(=O)(=O)N1CCC(c2cc(-c3ccc(NC(=O)c4cccn(-c5ccccc5)c4=O)cc3)c3c(N)ncnn23)CC1 [Example 40, N-(4-{4-Amino-7-[1-(methylsulfonyl)piperidin-4-yl]pyrrolo[2,1-f][1,2,4]triazin-5-yl}phenyl)-2-oxo-1-phenyl-1,2-dihydropyridine-3-carboxamide]",> 100
11,"CCN(C)C(=O)N1CCC(c2cc(-c3ccc(NC(=O)c4cccn(-c5ccc(F)cc5)c4=O)cc3)c3c(N)ncnn23)CC1 [Example 56, N-{4-[4-Amino-7-(1-{[ethyl(methyl)amino]carbonyl}piperidin-4-yl)pyrrolo[2,1-f][1,2,4]triazin-5-yl]phenyl}-1-(4-fluorophenyl)-2-oxo-1,2-dihydropyridine-3-carboxamide]",> 100
